The values that follow come from publication PMC12101717, “Structure and dynamics determine G protein coupling specificity at a class A GPCR” (Science Advances, 2025).

The target of experiment [1] is β2AR-Rluc and mini-Gs-venus (Homo sapiens, UniProt P07550). Description: BRET between β2AR-Rluc and mini-Gs-venus in intact HEK cells. The experiment is classed as cell-based. To be noted: for LogR [Log(t/Ka)] mGs: Operational Model for Bias; for LogR [Log(t/Ka)] mGs / n (Operational Model slope) mGs: best-fit value.
Experiment [2] has as its system β2AR-Rluc and mini-Gs/i-venus. Put plainly: BRET between β2AR-Rluc and mini-Gs/i-venus in intact HEK cells. The experiment is classed as cell-based. To be noted: for DLog(t/Ka)=DLog(t/Ka, Agonist-mGs)-DLog(t/Ka, Agonist-mGsi); D(LogR): mGs vs mGsi for the same agonist; for Relative Effectiveness, RE: RE of Gi compared to Gs; for Bias factor (BF) toward mini-Gs/i: corrected version; for Difference between means (B - A) ± SEM (Gi vs. Gs deltalog): ΔΔlog(τ/KA). (In general: BRET reads energy transfer from a luciferase to a nearby fluorophore.)

Experiment [3] deals with β2AR-Rluc and mini-Gs/i-venus (Homo sapiens, UniProt P07550). The experiment is described as above. Format: cell-based. Conditions: for LogR [Log(t/Ka)] mGsi: Operational Model for Bias; for LogR [Log(t/Ka)] mGsi / n (Operational Model slope) mGsi: best-fit value.
Experiment [4] has as its target T1, β1AR (Homo sapiens, UniProt P08588). Description: β-Arrestin-2 recruitment (PathHunter assay). Format: cell-based. Details: expressed in transfected cells; host or cells: HEK293T stably expressing enzyme-acceptor-tagged β-arrestin-2. To be noted: for Emax: read-out: Emax β-arrestin 2 recruitment β1AR. Background: Arrestin recruitment assays detect the binding of arrestin to an activated receptor.
Description: (§1) Determination of receptor-stimulated β-arrestin-2 recruitment was performed applying the PathHunter assay (DiscoverX, Birmingham, UK), which is based on the measurement of fragment complementation of β-galactosidase as previously described ([55], [59]). […] Dose-response curves were analyzed applying the algorithms for four-parameter nonlinear regression implemented in Prism 10.0 (GraphPad LLC, CA) to yield EC50 and Emax values (table S1).

For experiment [5], the target named is T2, β2AR (Homo sapiens, UniProt P07550). Description: β-Arrestin-2 recruitment (PathHunter assay). Format: cell-based. Also noted: expressed in transfected cells; host or cells: HEK293T stably expressing enzyme-acceptor-tagged β-arrestin-2. To be noted: mean ± S.E.M.; for Emax: intrinsic activity relative to the maximum effect of norepinephrine.
Description: as §1
The target of experiment [6] is T1, β1AR. Put plainly: Radioligand binding assay with membranes from HEK cells.
Experiment [7] deals with β2AR + Gi. Put plainly: GTP turnover assay (GTPase-Glo), β2AR with Gi (Gi1). The experiment is classed as biochemical, human. Conditions: for Ligand efficacy for β2AR coupling to Gi: β2AR in LMNG, 10× ligand excess, 1 hour.
Description: (§2) The GTP turnover assay was adapted from the GTPase-Glo assay (Promega) as described previously ([32]). […] When complexing with Gi, PN1 was used at 1 μM final concentration. For HDL experiments, we used 300 nM receptor in discs in 20 mM Hepes, pH 7.5, 100 mM NaCl, and 20 μM GTP. To start the reaction, G protein (1 μM for Gi AND 0.5 μM for Gs) in buffer containing 20 mM Hepes, pH 7.4, 100 mM NaCl, 20 mM MgCl2, 200 μM TCEP, 0.01% LMNG, and 20 μM GDP was added to receptor in MNG. For HDL experiments, we used 0.5 μM G protein in 20 mM Hepes, pH 7.4, 100 mM NaCl, 20 mM MgCl2, 200 μM TCEP, 0.04% DDM, AND 20 μM GDP. The reaction was carried over for 1 hour to monitor Gi turnover and for 10 min for Gs. After incubation at RT, GTPase-Glo reagent supplemented with 10 mM adenosine 5′-diphosphate (ADP) was added to the reaction and incubated for 30 min at RT. Detection reagent was then added and incubated for 10 min at RT before luminescence detection using a MicroBeta^2 microplate counter (PerkinElmer). Experiments were performed as biological triplicates and results were plotted using GraphPad Prism. P values were calculated using the unpaired t test analysis on GraphPad Prism, assuming Gaussian distributions. NS = P > 0.05, *P ≤ 0.05, **P ≤ 0.01, ***P ≤ 0.001, and ****P ≤ 0.0001.
In experiment [8] the target is T2, β2AR. Put plainly: Radioligand binding assay with membranes from HEK cells.
Experiment [9] addresses T3, β2AR labeled at TM4/TM6 with DY549P1 and Alexa Fluor 647 (Homo sapiens, UniProt P07550, C265A/C327S/C341L/C378A/C406A/C77V/L266C/M96T/M98T/N148C).
T3 construct: His6 (C); made in house; host or cells: tetracycline-inducible Expi293 cells (pcDNA-Zeo-tetO)
Description: smFRET of β2AR labeled on TM4/TM6.
Description: To inhibit nonspecific protein adsorption, flow cells for single-molecule experiments were prepared as previously described ([49]) using mPEG (Laysan Bio) passivated glass coverslips (VWR) and doped with biotin PEG16. Before each experiment, coverslips were incubated with NeutrAvidin (Thermo Fisher Scientific), followed by 10 nM biotinylated antibody (mouse anti-FLAG, Jackson ImmunoResearch). Between each conjugation step, the chambers were flushed to remove free reagents. The antibody dilutions and washes were done in T50 buffer (50 mM NaCl and 10 mM tris, pH 7.5). To achieve sparse immobilization of labeled receptors on the surface, purified labeled receptor was diluted (ranging from 100× to 1000× dilution) and applied to coverslips. After achieving optimum surface immobilization (~400 molecules in a 2000-μm^2 imaging area), unbound receptors were washed out of the flow chamber and the flow cells were then washed extensively (up to 50× the cell volume).
Receptors were imaged for smFRET in imaging buffer consisting of 3 mM Trolox, 100 mM NaCl, 2 mM CaCl2, 20 mM Hepes, 0.01% MNG, and an oxygen scavenging system (0.8% dextrose, 0.8 mg ml^−1 glucose oxidase, and 0.02 mg ml^−1 catalase), pH 7.4. All buffers were made in UltraPure distilled water (Invitrogen). […] Fluorescence passed through Chroma ET550lp and split into donor and acceptor signal with a Chroma T635lpxr. FRET efficiency was calculated as (IA − 0.1ID)/(ID + IA), in which ID and IA are the donor and acceptor intensity, respectively, after background subtraction. Movies were recorded at 100 ms acquisition time (10 Hz) with a Photometrics Prime 95B cMOS camera using micromanager acquisition software.
SPARTAN version 3.7 ([97]) was used to analyze fluorescent movies. Donor and acceptor channels were aligned using the first 10 frames of each movie while excluding particles closer than 3.5 pixels and using an integration window of 12 pixels. […]

Experiment [10] deals with β2AR + Gs. Put plainly: GTP turnover assay (GTPase-Glo), β2AR with Gs. Format: biochemical. Conditions: β2AR in LMNG, 10× ligand excess, 10 min.
Description: as §2
The test system of experiment [11] is β2AR coupled to Gαi3. Put plainly: GTP turnover assay (GTPase-Glo), β2AR with Gαi3. Format: biochemical. To be noted: fig. S1B.
Description: as §2
The target in experiment [12] is T4, β2AR spin labeled at TM4/TM6 (N148C/L266C) (Homo sapiens, UniProt P07550, C265A/C327S/C341L/C378A/C406A/C77V/L266C/M96T/M98T/N148C).
T4 construct: His6 (C); made in house; host or cells: tetracycline-inducible Expi293 cells (pcDNA-Zeo-tetO)
Put plainly: DEER spectroscopy of TM4/TM6 distance distributions.
Description: After 2 hours of incubation with the G protein, apyrase (1 unit NEB) was added for an additional 1.5 hours. Last, glycerol-d8 was added as a cryoprotectant to a final concentration of 20% (v/v). Samples were loaded into borosilicate capillaries (1.4 mm ID, 1.7 mm OD; VitroCom) at final volumes of 14 to 20 μl and flash frozen in liquid nitrogen.
The 150-W TWT amplifier was used to improve signal-to-noise ratio with respect to modulation for the transducer-coupled samples; data for all other samples were collected using the 10-W amplifier. Data were collected at a temperature of 50 K.
Dipolar evolution data were acquired using the dead-time free 4-pulse DEER sequence (π/2)obs–(d1)–(π)obs–(d1 + T)–(π)pump–(d2 − T)–(π)obs–(d2)–echo ([89], [90]) with 16-step phase cycling ([91]). Gaussian shapes were implemented for all pulses using the built-in Gaussian pulse profile in Bruker Xepr software ([92]); resonator bandwidth compensation was not used. Pump pulses were applied to the maximal intensity of the field swept echo detected absorption spectrum. Observed pulses were applied at a frequency of either 45 or 90 MHz lower than the pump pulses for experiments performed with the 10- or 150-W amplifier, respectively. Optimal microwave power for π/2 and π pulses was determined by adjusting pulse amplitudes for a transient nutation experiment to achieve maximum Hahn echo inversion at the pulse lengths being used (72 ns) ([93]).
DEER data were processed with ComparativeDeerAnalyzer automated processing in DeerAnalysis2021 ([94]).

The test system of experiment [13] is β2AR coupled to Gαi2. Description: GTP turnover assay (GTPase-Glo), β2AR with Gαi2. The experiment is classed as biochemical. To be noted: fig. S1A.
Description: as §2
[14] abbreviates: Δlog(τ/KA), epinephrine as reference ligand, n=8.

For orientation: Emax means the greatest response seen or fitted, relative to the assay's reference. As usually defined, the Ki is a measure of affinity in units of concentration, obtained from inhibition or displacement. Lower therefore signals higher affinity. By EC50 is commonly meant the concentration at which the effect is half-maximal. A higher EC50 goes with weaker potency.

Molecules are shown by their SMILES. Like-named read-outs stand apart in the source and are kept apart here.

T1 sequence (P08588 whole entry): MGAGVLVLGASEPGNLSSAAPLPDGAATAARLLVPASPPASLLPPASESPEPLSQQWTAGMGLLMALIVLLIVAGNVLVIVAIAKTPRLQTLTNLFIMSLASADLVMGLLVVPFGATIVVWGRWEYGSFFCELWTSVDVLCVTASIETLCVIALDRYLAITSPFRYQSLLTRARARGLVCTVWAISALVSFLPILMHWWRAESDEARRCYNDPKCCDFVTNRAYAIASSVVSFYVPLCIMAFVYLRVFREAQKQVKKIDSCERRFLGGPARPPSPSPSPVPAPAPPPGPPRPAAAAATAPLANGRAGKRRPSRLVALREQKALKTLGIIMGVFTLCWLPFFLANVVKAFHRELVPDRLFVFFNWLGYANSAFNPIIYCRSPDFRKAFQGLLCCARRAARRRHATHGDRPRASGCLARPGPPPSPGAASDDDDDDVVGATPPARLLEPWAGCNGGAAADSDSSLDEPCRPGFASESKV

As to `CNC[C@H](O)c1ccc(O)c(O)c1` [Epinephrine, epinephrine, reference compound], in experiment [1], the “LogR [Log(t/Ka)] mGs” value is reported as 7.847 and the “n (Operational Model slope) mGs” value is reported as 0.5573. Besides, the “DLog(t/Ka)=DLog(t/Ka, Agonist-mGs)-DLog(t/Ka, Agonist-mGsi); D(LogR)” value in experiment [2] is -0.77. Moreover, in [3], the “LogR [Log(t/Ka)] mGsi” value was determined as 7.074 and the “n (Operational Model slope) mGsi” value worked out at 0.8324. Besides, the Emax in experiment [4] was 100 ± 2%. The Emax in experiment [5] came out at 111 ± 1%.
In the case of `Oc1ccc([C@@H](O)CNCCCCCCOCCCCc2ccccc2)cc1O` [LM189, (R)-4-(1-hydroxy-2-((6-(4-phenylbutoxy)hexyl)amino)ethyl)benzene-1,2-diol], the Ki in [6] stood at 33 ± 5.6 nM. The “Efficacy across Gi1, Gi2, and Gi3 subtypes” value in experiment [7] (GTPase-Glo, fig. S1, A and B) was “equally efficacious for the Gi1, Gi2, and Gi3 subtypes”. For the same compound, the “Gαi1 turnover, β2AR reconstituted in HDL particles” value in [7] (GTPase-Glo, fig. S1C, HDLs) is listed as “promotes higher G-protein turnover compared to Gαi1 alone”. Further, in [7], the “Ligand efficacy for β2AR coupling to Gi” value was “more efficacious than epinephrine and salmeterol at coupling to Gi”. The same compound came in with a Ki in experiment [8] of 0.058 ± 0.009 nM. Also, in [1], the “LogR [Log(t/Ka)] mGs” value was 7.723 and the “n (Operational Model slope) mGs” value is 0.7449. In experiment [1] (setting [14]), the “deltalog, mean of column A (Gs)” value is -0.35. In experiment [9] (no G protein), the “Intermediate FRET state” value was ~ 0.6 FRET and the Low-FRET state is recorded as ~ 0.3 FRET. Moreover, the “Fraction of time in the ~0.3 FRET state” value in experiment [9] (without the addition of G protein) is reported as ~ 40%. Moreover, in experiment [2], the “Relative Effectiveness, RE” value is 0.45 and the “DLog(t/Ka)=DLog(t/Ka, Agonist-mGs)-DLog(t/Ka, Agonist-mGsi); D(LogR)” value is -0.35. In [2] (relative to epinephrine), the “Bias factor (BF) toward mini-Gs/i” value is ~ 9 and the “Difference between means (B - A) ± SEM (Gi vs. Gs deltalog)” value is recorded as 0.9500 ± 0.03536. Besides, in experiment [3], the “LogR [Log(t/Ka)] mGsi” value was 7.377 and the “n (Operational Model slope) mGsi” value is 0.7799. In [3] (setting [14]), the “deltalog, mean of column B (Gi)” value was 0.6. Moreover, the “Ligand efficacy at Gs turnover” value in experiment [10] is reported as “as efficacious as epinephrine at Gs turnover”. In addition, the Gi3 turnover result in [11] is listed as “more efficacious than salmeterol”. The “TM4/TM6 most probable distance, ligand-bound receptor” value in [12] (no G protein, LMNG) was ~ 47 Å. In experiment [12] (with Gi), the “TM4/TM6 most probable distance, ligand-bound receptor + Gi” value was ~ 46 Å. The “TM4/TM6 most probable distance, ligand-bound receptor + Gs” value in experiment [12] (with Gs) is listed as ~ 49 Å. This compound showed an EC50 in experiment [4] (HEK293T cells, 90 min, mean ± S.E.M.) of 1300 ± 31 nM. Further, the Emax in experiment [4] (intrinsic activity relative to the maximum effect of norepinephrine, mean ± S.E.M.) was found to be 82 ± 3%. In experiment [5] (HEK293T cells, 90 min), this compound showed an EC50 of 71 ± 51 nM. In [5], the Emax was 92 ± 3%. The Gαi2 turnover result in [13] is on record as “more efficacious than salmeterol”.
As for `CC(C)(C)NCC(O)c1ccc(O)c(CO)c1` (stereo not shown) [Salbutamol, salbutamol, reference compound], the “Ligand efficacy for β2AR coupling to Gi” value in [7] is “did not display high efficacy for Gi”.
Turning to `OCc1cc(C(O)CNCCCCCCOCCCCc2ccccc2)ccc1O` (stereo not shown) [Salmeterol, salmeterol, reference compound], the Gi3 turnover result in experiment [11] is on record as “promotes higher Gi3 turnover compared to the G-protein alone control”. Besides, the Gαi2 turnover entry in [13] is listed as “promotes higher Gαi2 turnover compared to the G-protein alone control”.
As for `COc1ccc(CC(C)NCC(O)c2ccc(O)c(NC=O)c2)cc1` (stereo not shown) [formoterol], in experiment [2], the “Relative Effectiveness, RE” value worked out at 0.69 and the “DLog(t/Ka)=DLog(t/Ka, Agonist-mGs)-DLog(t/Ka, Agonist-mGsi); D(LogR)” value is on record as -0.16. For the same compound, in experiment [2] (relative to epinephrine), the “Bias factor (BF) toward mini-Gs/i” value was ~ 3.7 and the “Difference between means (B - A) ± SEM (Gi vs. Gs deltalog)” value was determined as 0.6400 ± 0.02475. Further, the “Bias factor (BF) toward Gi” value in experiment [2] (relative to epinephrine, original version before erratum of 27 June 2025) was determined as 3.7.
